Several values for one entry are separate records, joined by “and”; a condition that tells them apart may be missing. Equal values may be shown once.
Columns and labels:
Assay type in all cases: cell-based
[1] = system: Salmonella typhimurium TA98; assay: Ames test (reverse mutation test), TA98
Protocol: (§1) The solvent used herein was dimethyl sulfoxide (DMSO, 100 µL/plate).
(§2) The mixtures were preincubated at 37° C. for 20 minutes while shaking. […] Two plates per treatment were used.

[2] = system: Salmonella typhimurium TA1537; assay: Ames test (reverse mutation test), TA1537
Protocol: as §1, §2

[3] = system: Salmonella typhimurium TA100; assay: Ames test (reverse mutation test), TA100
Protocol: as §1, §2

[4] = system: Salmonella typhimurium TA1535; assay: Ames test (reverse mutation test), TA1535
Protocol: as §1, §2

[5] = system: Escherichia coli WP2uvrA; assay: Ames test (reverse mutation test), WP2uvrA; conditions: WP2uvrA
Protocol: as §1, §2

[6] = system: Salmonella typhimurium (TA98, TA1537, TA100, and TA1535) and Escherichia coli (WP2uvrA); assay: Ames test (reverse mutation test), overall conclusion over all tester strains; conditions: all bacterial tester strains, with and/or without S9 mix
Protocol: as §1, §2
Details are explained as follows.

CC(C)(C)Oc1cc(F)cc(-c2cc(N)nn2C(F)(F)F)c1 [Metabolite 1]
Number of revertant colonies ([1]; TA98, +S9 mix, 2.3 µg/plate): 35
Number of revertant colonies ([1]; TA98, +S9 mix, 6.9 µg/plate): 31
Number of revertant colonies ([1]; TA98, +S9 mix, 21 µg/plate): 35
Number of revertant colonies ([1]; TA98, +S9 mix, 62 µg/plate): 28
Number of revertant colonies ([1]; TA98, +S9 mix, 185 µg/plate): 16
Number of revertant colonies ([1]; TA98, +S9 mix, 556 µg/plate): 15
Number of revertant colonies ([1]; TA98, +S9 mix, 1667 µg/plate): 13
Number of revertant colonies ([1]; TA98, +S9 mix, 5000 µg/plate): 13
Number of revertant colonies ([1]; TA98, -S9 mix, 2.3 µg/plate): 14
Number of revertant colonies ([1]; TA98, -S9 mix, 6.9 µg/plate): 16
Number of revertant colonies ([1]; TA98, -S9 mix, 21 µg/plate): 14
Number of revertant colonies ([1]; TA98, -S9 mix, 62 µg/plate): 21
Number of revertant colonies ([1]; TA98, -S9 mix, 185 µg/plate): 9
Number of revertant colonies ([1]; TA98, -S9 mix, 556 µg/plate): 0
Number of revertant colonies ([1]; TA98, -S9 mix, 1667 µg/plate): 0
Number of revertant colonies ([1]; TA98, -S9 mix, 5000 µg/plate): 0
Number of revertant colonies ([2]; TA1537, +S9 mix, 2.3 µg/plate): 11
Number of revertant colonies ([2]; TA1537, +S9 mix, 6.9 µg/plate): 10
Number of revertant colonies ([2]; TA1537, +S9 mix, 21 µg/plate): 9
Number of revertant colonies ([2]; TA1537, +S9 mix, 62 µg/plate): 6
Number of revertant colonies ([2]; TA1537, +S9 mix, 185 µg/plate): 2
Number of revertant colonies ([2]; TA1537, +S9 mix, 556 µg/plate): 0
Number of revertant colonies ([2]; TA1537, +S9 mix, 1667 µg/plate): 0
Number of revertant colonies ([2]; TA1537, +S9 mix, 5000 µg/plate): 0
Number of revertant colonies ([2]; TA1537, -S9 mix, 2.3 µg/plate): 7
Number of revertant colonies ([2]; TA1537, -S9 mix, 6.9 µg/plate): 10
Number of revertant colonies ([2]; TA1537, -S9 mix, 21 µg/plate): 9
Number of revertant colonies ([2]; TA1537, -S9 mix, 62 µg/plate): 9
Number of revertant colonies ([2]; TA1537, -S9 mix, 185 µg/plate): 0
Number of revertant colonies ([2]; TA1537, -S9 mix, 556 µg/plate): 0
Number of revertant colonies ([2]; TA1537, -S9 mix, 1667 µg/plate): 0
Number of revertant colonies ([2]; TA1537, -S9 mix, 5000 µg/plate): 0
Number of revertant colonies ([3]; TA100, +S9 mix, 2.3 µg/plate): 120
Number of revertant colonies ([3]; TA100, +S9 mix, 6.9 µg/plate): 119
Number of revertant colonies ([3]; TA100, +S9 mix, 21 µg/plate): 117
Number of revertant colonies ([3]; TA100, +S9 mix, 62 µg/plate): 104
Number of revertant colonies ([3]; TA100, +S9 mix, 185 µg/plate): 78
Number of revertant colonies ([3]; TA100, +S9 mix, 556 µg/plate): 59
Number of revertant colonies ([3]; TA100, +S9 mix, 1667 µg/plate): 50
Number of revertant colonies ([3]; TA100, +S9 mix, 5000 µg/plate): 52
Number of revertant colonies ([3]; TA100, -S9 mix, 2.3 µg/plate): 99
Number of revertant colonies ([3]; TA100, -S9 mix, 6.9 µg/plate): 113
Number of revertant colonies ([3]; TA100, -S9 mix, 21 µg/plate): 124
Number of revertant colonies ([3]; TA100, -S9 mix, 62 µg/plate): 88
Number of revertant colonies ([3]; TA100, -S9 mix, 185 µg/plate): 38
Number of revertant colonies ([3]; TA100, -S9 mix, 556 µg/plate): 0
Number of revertant colonies ([3]; TA100, -S9 mix, 1667 µg/plate): 0
Number of revertant colonies ([3]; TA100, -S9 mix, 5000 µg/plate): 0
Number of revertant colonies ([4]; TA1535, +S9 mix, 1667 µg/plate): 4
Number of revertant colonies ([4]; TA1535, -S9 mix, 62 µg/plate): 8
Number of revertant colonies ([4]; TA1535, -S9 mix, 185 µg/plate): 0
Number of revertant colonies ([4]; TA1535, -S9 mix, 556 µg/plate): 0
Number of revertant colonies ([4]; TA1535, -S9 mix, 1667 µg/plate): 0
Number of revertant colonies ([5]; +S9 mix, 2.3 µg/plate): 31
Number of revertant colonies ([5]; +S9 mix, 6.9 µg/plate): 31
Number of revertant colonies ([5]; +S9 mix, 12 µg/plate): 28
Number of revertant colonies ([5]; +S9 mix, 21 µg/plate): 32 and 25
Number of revertant colonies ([5]; +S9 mix, 36 µg/plate): 34
Number of revertant colonies ([5]; +S9 mix, 62 µg/plate): 40 and 35
Number of revertant colonies ([5]; +S9 mix, 185 µg/plate): 16 and 9
Number of revertant colonies ([5]; +S9 mix, 556 µg/plate): 18
Number of revertant colonies ([5]; +S9 mix, 1667 µg/plate): 9
Number of revertant colonies ([5]; +S9 mix, 5000 µg/plate): 0
Number of revertant colonies ([5]; -S9 mix, 2.3 µg/plate): 32
Number of revertant colonies ([5]; -S9 mix, 6.9 µg/plate): 27
Number of revertant colonies ([5]; -S9 mix, 21 µg/plate): 31
Number of revertant colonies ([5]; -S9 mix, 62 µg/plate): 24
Number of revertant colonies ([5]; -S9 mix, 185 µg/plate): 15
Number of revertant colonies ([5]; -S9 mix, 556 µg/plate): 8
Number of revertant colonies ([5]; -S9 mix, 1667 µg/plate): 5
Number of revertant colonies ([5]; -S9 mix, 5000 µg/plate): 0
potential to induce reverse mutations [6]: did not show potential to induce reverse mutations
